{
  "source": "ChEMBL document CHEMBL6177981",
  "about": "“Bardoxolone Derivatives as Novel Pseudo-Natural Necroptosis Inhibitors by Destabilizing HSP90 Client Proteins” (J Med Chem, 2025)",
  "key": {"EOL1": {"system": "EOL1", "assay": "Anti-necroptotic activity in TSZ-induced human EOL1 cells assessed as increase in cell viability at 2.5 to 20 uM preincubated with compound followed by Z-VAD-FMK, SM164 and TNFalpha addition and measured after 7 hrs by CellTiter-Lumi luminescent cell viability assay relative to control", "type": "functional", "conditions": "dose 2.5-20 µM"}, "Mus musculus [1]": {"system": "Mus musculus", "assay": "(§1) Anti-necroptotic activity in TNFalpha/Z-VAD-FMK induced SIRS male C57BL/6J mouse model assessed as survival rate at 2.5 mg/kg, po pre-administered with compound via gavage for 2 hrs followed by […] of Z-VAD-FMK stimulation for 15 mins with subsequent TNF-alpha stimulation for 1 hrs and re-current […] of Z-VAD-FMK stimulation and measured after 8 hrs post SIRS induction relative to control", "type": "functional", "conditions": "time 10 hrs"}, "Mus musculus [2]": {"system": "Mus musculus", "assay": "as §1, with “reduction in IL-1beta in kidney” for “survival rate”, “5 to 10” for “2.5”, “by ELISA” for “relative to control”", "type": "functional, organism-based", "conditions": "dose 5-10 mg/kg, time 10.0 hrs"}, "Mus musculus [3]": {"system": "Mus musculus", "assay": "as §1, with “reduction in IL-1beta in intestine” for “survival rate”, “5 to 10” for “2.5”, “by ELISA” for “relative to control”", "type": "functional, organism-based", "conditions": "dose 5-10 mg/kg, time 10.0 hrs"}, "Mus musculus [4]": {"system": "Mus musculus", "assay": "as §1, with “reduction in IL6 in heart” for “survival rate”, “5 to 10” for “2.5”, “by ELISA” for “relative to control”", "type": "functional, organism-based", "conditions": "dose 5-10 mg/kg, time 10.0 hrs"}, "[5]": {"assay": "Acute toxicity in male C57BL/6J mouse assessed as inflammatory cell infiltration in lung at 2 g/Kg, IG measured after 72 hrs by H and E staining based analysis", "type": "tissue-based", "conditions": "in vivo, po, 2000 mg/kg"}, "[6]": {"biological_target": "T1, Mixed lineage kinase domain-like protein (Homo sapiens) (UniProt Q8NB16)", "T1 sequence (whole entry)": "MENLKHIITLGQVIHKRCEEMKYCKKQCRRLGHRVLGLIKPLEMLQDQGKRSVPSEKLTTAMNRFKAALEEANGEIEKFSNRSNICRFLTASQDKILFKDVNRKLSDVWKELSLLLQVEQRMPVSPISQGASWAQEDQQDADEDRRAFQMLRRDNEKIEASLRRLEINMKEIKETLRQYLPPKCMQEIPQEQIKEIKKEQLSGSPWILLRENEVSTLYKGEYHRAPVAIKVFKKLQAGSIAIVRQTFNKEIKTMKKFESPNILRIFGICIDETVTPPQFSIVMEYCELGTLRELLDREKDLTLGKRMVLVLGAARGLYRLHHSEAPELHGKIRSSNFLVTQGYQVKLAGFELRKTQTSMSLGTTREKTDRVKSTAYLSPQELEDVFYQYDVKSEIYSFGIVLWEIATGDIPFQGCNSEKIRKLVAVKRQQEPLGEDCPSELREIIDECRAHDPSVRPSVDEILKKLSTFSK", "assay": "Inhibition of MLKL phosphorylation at S358 residue in TSZ-induced human HT-29 cells at 10 uM preincubated with compound followed by Z-VAD-FMK, SM164 and TNFalpha stimulation and measured after 6 hrs by Western blot analysis", "type": "cell-based"}, "HT-29 [7]": {"system": "HT-29", "assay": "Downregulation of RIPK1 protein level in human HT-29 cells incubated for 9 hrs by Western blot analysis", "type": "functional, cell-based", "conditions": "dose 0.75-6 µM"}, "HT-29 [8]": {"system": "HT-29", "assay": "Downregulation of RIPK3 protein level in human HT-29 cells at 6 uM preincubated with NH4Cl for 2 hrs followed by compound addition and measured after 9 hrs by Western blot analysis", "type": "functional, cell-based"}, "HT-29 [9]": {"system": "HT-29", "assay": "Downregulation of MLKL protein level in human HT-29 cells at 6 uM preincubated with MG132 for 2 hrs followed by compound addition and measured after 9 hrs by Western blot analysis", "type": "functional, cell-based"}},
  "note": "Active and inactive are the calls of the source. No cut-off for these calls is given here.",
  "data": [
    {"smiles": "Cn1ccc(-c2ccc(NC(=O)[C@]34CCC(C)(C)C[C@H]3[C@H]3C(=O)C=C5[C@@]6(C)C=C(C#N)C(=O)C(C)(C)[C@@H]6CC[C@@]5(C)[C@]3(C)CC4)cc2)n1", "values": [
      {"measurement": "Activity", "setting": "EOL1", "value": 100, "unit": "%"},
      {"measurement": "survival at 2.5 mg/kg", "setting": "Mus musculus [1]", "value": 35, "unit": "%"},
      {"measurement": "Activity", "setting": "Mus musculus [2]", "value": "Active"},
      {"measurement": "Activity", "setting": "Mus musculus [3]", "value": "Active"},
      {"measurement": "Activity", "setting": "Mus musculus [4]", "value": "Active"},
      {"measurement": "Activity", "setting": "[5]", "value": "Non-toxic"},
      {"measurement": "inhibition", "setting": "[6]", "value": "Active"},
      {"measurement": "Activity", "setting": "HT-29 [7]", "value": "Dose-dependent-effect"},
      {"measurement": "Activity", "setting": "HT-29 [8]", "value": "Active"},
      {"measurement": "Activity", "setting": "HT-29 [9]", "value": "Active"}
    ]}
  ]
}
